Where two headings read alike, the source gives them in different places.
Tests used:
Tyrosinase [1] = target: T1, Tyrosinase (Agaricus bisporus, UniProt C7FF04); test: Tyrosinase assay (inhibitory activity, L-tyrosine substrate, product detected at 475 nm); type: biochemical; design: purchased Sigma–Aldrich T3824; settings: for Inhibitory Ratio at 50 μM: 50 μM compound
Procedure: (§1) To assess the inhibitory effect of compounds on tyrosinase, 130 μL tyrosinase in 0.05 mM phosphate buffer (pH 6.8) was aliquoted into 96-well plates, and 20 μL of each compound at concentrations ranging from 0.5 to 0.0075 mM was added. Next, 50 μL 1.2 mM L-tyrosine in phosphate buffer was diluted to calculate the inhibitory activity. Finally, 50 μL 10–0.62 mM l-tyrosine in buffer was added to analyze the initial velocity (v0). Twenty minutes after starting the reaction, the amount of product was detected at 475 nm. The inhibitory activity was calculated using the following equation: Inhibitory activity rate (%) = [(ΔC − ΔS)/ΔC] × 100, where C and S are the intensity of control and inhibitor after 20 min, respectively.
Target sequence in this assay (C7FF04 1-392 limits assumed): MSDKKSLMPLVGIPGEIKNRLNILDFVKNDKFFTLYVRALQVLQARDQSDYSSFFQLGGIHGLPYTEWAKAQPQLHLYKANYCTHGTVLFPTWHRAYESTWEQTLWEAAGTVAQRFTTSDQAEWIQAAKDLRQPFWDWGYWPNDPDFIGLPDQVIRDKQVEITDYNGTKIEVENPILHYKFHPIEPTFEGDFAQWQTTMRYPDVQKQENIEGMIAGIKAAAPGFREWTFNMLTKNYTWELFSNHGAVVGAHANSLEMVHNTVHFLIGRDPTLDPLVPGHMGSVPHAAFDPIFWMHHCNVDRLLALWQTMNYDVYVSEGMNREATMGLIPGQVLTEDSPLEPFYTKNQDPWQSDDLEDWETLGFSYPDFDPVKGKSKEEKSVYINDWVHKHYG

Tyrosinase [2] = target: T1, Tyrosinase; test: Enzyme kinetics on tyrosinase (Lineweaver–Burk and Dixon plots); type: biochemical; settings: various substrate concentrations
Procedure: The v0 was calculated at ~10% of the substrate conversion rate by tyrosinase. The results are shown as Lineweaver–Burk plots (Figure 2A–C and Table 1).
as §1
Target sequence in this assay (C7FF04 2-392): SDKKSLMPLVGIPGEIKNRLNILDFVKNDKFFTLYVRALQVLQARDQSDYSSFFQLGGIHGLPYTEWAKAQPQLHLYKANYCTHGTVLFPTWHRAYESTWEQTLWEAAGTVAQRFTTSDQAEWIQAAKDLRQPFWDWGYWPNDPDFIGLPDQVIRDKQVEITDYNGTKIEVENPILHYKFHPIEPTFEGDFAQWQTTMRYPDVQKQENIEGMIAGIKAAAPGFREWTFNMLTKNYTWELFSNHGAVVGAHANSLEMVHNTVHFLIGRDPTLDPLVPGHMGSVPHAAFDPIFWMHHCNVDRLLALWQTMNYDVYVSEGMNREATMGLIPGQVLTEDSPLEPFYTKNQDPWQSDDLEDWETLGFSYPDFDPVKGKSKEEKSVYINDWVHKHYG

[3] = Mean ± SEM, tested three times, read-out: IC50

Row | SMILES | Inhibitory Ratio at 50 μM (Tyrosinase [1]; tested three times) | Inhibitory activity on tyrosinase (in words) (Tyrosinase [1]) | IC50 (Tyrosinase [1]; [3]) | Binding Mode (Tyrosinase [2]) | IC50 (Tyrosinase [1])
1 | OC[C@H]1O[C@@H](Oc2cc3c(O)cc(O)cc3[o+]c2-c2cc(O)c(O)c(O)c2)[C@H](O)[C@@H](O)[C@@H]1O [Compound 5, delphinidin 3-O-glucoside] | 47.5 ± 3.2% | – | – | – | –
2 | OC[C@H]1O[C@@H](Oc2cc3c(O)cc(O)cc3[o+]c2-c2ccc(O)cc2)[C@H](O)[C@@H](O)[C@@H]1O [Compound 6, callistephin (pelargonidin 3-O-glucoside)] | 6.5 ± 2.1% | – | – | – | –
3 | COc1cc(-c2[o+]c3cc(O)cc(O)c3cc2O[C@@H]2O[C@H](CO)[C@@H](O)[C@H](O)[C@H]2O)cc(O)c1O [Compound 2, petunidin 3-O-glucoside] | 69.2 ± 1.0% | most potent inhibitors | 10.3 ± 1 µM | Competitive inhibitor | –
4 | OC[C@H]1O[C@@H](Oc2cc3c(O)cc(O)cc3[o+]c2-c2ccc(O)c(O)c2)[C@H](O)[C@@H](O)[C@@H]1O [Compound 4, kuromanin (cyanidin 3-O-glucoside)] | −1.9 ± 40.0% | – | – | – | –
5 | OC[C@H]1O[C@@H](Oc2cc3c(O)cc(O)cc3[o+]c2-c2cc(O)c(O)c(O)c2)[C@H](O)[C@@H](O)[C@H]1O [Compound 3, delphinidin 3-O-galactoside] | 55.2 ± 0.9% | moderate inhibitory activity | 41.3 ± 3.2 µM | Competitive inhibitor | –
6 | Oc1cc(O)c2ccc(-c3ccc(O)c(O)c3)[o+]c2c1 [Compound 1, luteolinidin] | – | most potent inhibitors | – | Competitive inhibitor | 3.7 ± 0.8 µM
